Results published in patent US12433885B2, “Procaspase combination therapy for glioblastoma” (THE BOARD OF TRUSTEES OF THE UNIVERSITY OF ILLINOIS, priority 2012, dated 2025).

How the values were obtained:
9 L cell line = assay: IC50 of PAC-1 with the 9 L cell line; format: cell-based; settings: Rattus norvegicus; 72 hour experiment; initial assessment
Procedure: The initial assessment for the IC50 for PAC-1 with the 9 L cell line is about 7 μM (72 hour experiment).

[1] = Neurotoxicity of oral PAC-1 in mice; format: in vivo; settings: given orally at up to 200 mg/kg
9 L (rat glioma) cells = assay: 9 L intracranial syngeneic rat glioma model, overall survival; format: in vivo; settings: for Median survival: F344 rats, intracranial 9 L, PAC-1 50 mg/kg oral gavage days 0-4, TMZ 50 mg/kg oral gavage days 5-9, 8 rats per group
Procedure: 9 L (rat glioma) cells were intracranially implanted in rats. PAC-1 (50 mg/kg in water) was administered via oral gavage on days 0-4, and TMZ (50 mg/kg in water) was given via oral gavage on days 5-9; 8 rates per group.
The in vivo rat experiments employed 9 L cells, a very aggressive tumor model, implanted inter-cranially in rats in 3 treatment groups (PAC-1 alone, TMZ alone, and the combination of PAC-1 and TMZ) and one control group.
PAC-1 was suspended in water, and given to the rats via oral gavage at 50 mg/kg (a relatively low dose) for 5 days followed by five days of TMZ dosing.
PAC-1 (50 mg/kg in water) was administered via oral gavage on days 0-4, and TMZ (50 mg/kg in H2O) was given via oral gavage on days 5-9.
9 L gliosarcoma was maintained as a solid subcutaneous mass in the flanks of F344 rats. For intracranial implantation, the 9 L gliosarcoma tumor was surgically excised from the carrier animal and sliced into 1 mm^3 pieces at the time of implantation.
The animals were divided into the following four experimental groups with eight animals per group: (1) Control, (2) PAC-1 alone, (3) TMZ alone, and (4) PAC-1+TMZ. The control animals only received water. Two groups of animals from PAC-1 alone and PAC-1+TMZ received an oral gavage of PAC-1 suspended in water starting day 0 six hours post implantation. PAC-1 was administered only for 5 days from day 0 to day 4. The animals from TMZ alone and PAC-1+TMZ groups received 5 doses of TMZ in water administered orally from day 5 to day 9.

K7M2 cells = assay: Mouse model of metastatic osteosarcoma, survival; format: in vivo; settings: oral PAC-1 100 mg/kg in HPβCD and TMZ 50 mg/kg, sequential, daily for five consecutive days, from seven days after K7M2 injection; n=8 mice per group
Procedure: FIG. 4. PAC-1 synergizes with TMZ to extend survival in a mouse model of metastatic osteosarcoma. Seven days after injection of K7M2 cells, mice were treated orally with PAC-1 (100 mg/kg in HPβCD), TMZ (50 mg/kg […]), or a sequential treatment with each, daily for five consecutive days; n=8 mice per group.

SMILES: C=CCc1cccc(/C=N/NC(=O)CN2CCN(Cc3ccccc3)CC2)c1O [PAC-1, 2-(4-benzylpiperazin-1-yl)-N-[(2-hydroxy-3-prop-2-enyl-phenyl)methylideneamino]acetamide]
- IC50 (9 L cell line): ~7 µM
- Neurotoxicity [1]: No neurotoxicity was observed
- Median survival (9 L (rat glioma) cells): 13.5 days
- Neurotoxicity (9 L (rat glioma) cells; rats, PAC-1 50 mg/kg oral gavage for 5 days followed by five days of TMZ dosing): no neurotoxicity was observed
- Synergy with TMZ to extend survival (K7M2 cells): synergizes

SMILES: Cn1nnc2c(C(N)=O)ncn2c1=O [TMZ, Temozolomide, reference compound]
- Median survival (9 L (rat glioma) cells): 20 days
